The record followed here is patent US6855714B2, “1-alkyl-2-aryl-benzimidazole derivatives, their use for the production of pharmaceutical agents as well as pharmaceutical preparations that contain these derivatives” (Schering Aktiengesellschaft, priority 2001, dated 2005).

The test has as its system primary rat microglia. Description: Inhibition of microglia activation (Aβ peptide stimulation, MTS reduction). Format: cell-based. To be noted: Aβ-activated primary rat microglia, MTS reduction on day 7, compound added on day 5; read-out: IC50 in the Microglia Inhibition Test. The procedure:
For in vitro production of Aβ-activated microglia, primary rat microglia are incubated with synthetic Aβ peptide:
To simulate Aβ deposits, synthetic Aβ peptide is dried on 96-hole tissue culture plates. A peptide stock solution of 2 mg/ml of H2O 1:50 in H2O, is diluted in this. To coat the 96-hole plates, 30 μL of this dilute peptide solution/hole is used and dried overnight at room temperature.
Primary rat microglia are harvested from mixed glia cultures, which were obtained from P3 rat brains. For the production of mixed glia cultures, the brains are removed from 3-day-old rats and meninges are removed therefrom. The isolation of cells is achieved by trypsinization (0.25% trypsin solution, 15 minutes 37° C.)). After undigested tissue fragments are separated with the aid of a 40 µm nylon mesh, the isolated cells are centrifuged off (800 rpm/10 minutes). The cell pellet is resuspended in culture medium and moved into 100 ml tissue culture flasks (1 brain/tissue culture flask). […]
To quantify the microglia reactivity, the metabolic activity is measured on cultivation day 7 via the reduction of MTS (3-(4,5-dimethylthiazol-2-yl)-5-(3carboxymethoxyphenyl)-2-(sulfophenyl)-2H-tetrazolium), Owen's reagent, Baltrop, J. A. et al., Bioorg. & Med. Chem. Lett., 1, 6111 (1991)). […]

The term IC50 denotes the concentration that gives 50% inhibition.

In the case of `COC(=O)CCCCCOc1ccc2nc(-c3ccc(OC)cc3)n(CCCN(C)C(C)=O)c2c1` [6-[(5-(Methoxycarbonyl)pentyl)oxy]-2-(4-methoxy-phenyl)-1-[3-(N-methyl-N-(methylcarbonyl)amino)propyl]-benzimidazole], the IC50 came to 0.39 µM.

As to `COCCCn1c(-c2ccccc2)nc2ccc(OCCCCCC(=O)OC)cc21` [6-[(5-(Methoxycarbonyl)pentyl)oxy]-1-(3-methoxy-n-propyl)-2-phenyl-benzimidazole], the IC50 came to 0.65 µM.
